Data as given in US20160324818A1, “DIET FOOD COMPOSITION INCLUDING DHA TO REDUCE SHORT-TERM AND LONG-TERM LOW-GRADE INFLAMMATION” (PRI S.A., priority 2013, published 2016).

Columns and labels:
Type in all cases: in vivo, human (obese patients, average BMI=33)
[1] = test system: ultrasensitive reactive protein C (PRCus); test: Slimming study: blood level of ultrasensitive reactive protein C; conditions: DHA every day during slimming diet (FIG. 3); control group 12%
Method: (§1) A study under medical supervision was conducted among obese patients (average BMI=33). The subjects were separated into two groups: • a “control” group consuming food compositions similar to those of the invention but without DHA; and • a “study” group consuming food compositions according to the invention comprising DHA.
(§2) At the start of the program as well as after 30 days if necessary, then 60 days and at the end of 6 months the subjects underwent a blood test in order to evaluate their levels of pro-inflammatory and anti-inflammatory markers depending on their increase or loss of weight. The markers or molecules indicating the presence of inflammation that were tested for were leucocytes, neutrophils, the reactive protein C (PRC), TNF-α, interleukin 6, leptin, resistin and adiponectin.
For the first 60 days of the study, the patients in the study group each received 500 mg of DHA per day solely through the consumption of food compositions and portions according to the invention. Their calorie intake was below 800 kcals per day and was presented chiefly in the form of food compositions or portions according to the invention. […]
It can be seen from FIGS. 3 and 4 that there was a diminishing of the pro-inflammatory markers. Two inflammation markers associated with obesity were tested for and their levels were measured: these were ultrasensitive reactive protein C (PRCus) and leptin.

PD1 = test: Slimming study: blood level of anti-inflammatory marker PD1; conditions: day 60; control group reduced by 36%
Method: as §1
as §2, with “adiponectin. […]” for “adiponectin.”

[2] = Slimming study under medical supervision: weight loss and waistline
Method: as §1
For the first 60 days of the study, the patients in the study group each received 500 mg of DHA per day solely through the consumption of food compositions and portions according to the invention. Their calorie intake was below 800 kcals per day and was presented chiefly in the form of food compositions or portions according to the invention. To be more precise, the patients consumed five food portions according to the invention during the day, two of them during the main meals where the portions were accompanied by vegetables in order to ensure their DHA intake especially. […] The goal was to re-educate the patient in terms of food intake. Traditional foods were gradually re-introduced into the patient's daily food intake in order to avoid deficiency and fatigue as well as to re-educate him or her on the food intake level.
The progress of the waistline measurements in the two groups of patients is shown in the graph of FIG. 2. The waistline measurement makes it possible to evaluate loss of abdominal fat, a parameter associated with the metabolic syndrome. […]

CC/C=C\C/C=C\C/C=C\C/C=C\C/C=C\C/C=C\CCC(=O)O [DHA, docosahexaenoic acid]
reduction of PRC rate [1]: approximately 18%
change of PD1 level as compared with day 0 (PD1): +83%
average weight loss ([2]; 6 months (D-180) from D-0, same figure stated for both groups): about 20 kg
average loss in waistline measurement ([2]; end of 60 days, same figure stated for each group): about 15 cm
